Several values for one entry are separate records, joined by “and”; a condition that tells them apart may be missing. Equal entries are not always repeated. Values belong to the compound of their own block, whether it stands above or below them.
Legend:
L1210 [1] = experiment: Tested for inhibition of L1210 cell growth by the compound after 48 hr; format: functional, cell-based; details: Mus musculus, L1210, 48 h
L1210 [2] = experiment: Tested for inhibition of L1210 cell growth by the compound after 96 hr; format: functional, cell-based; details: Mus musculus, L1210, 96 h
L1210 [3] = experiment: Tested for inhibition of L1210 cell growth by the compound at a dose of >12.5 uM and after 48 hr; details: Mus musculus
L1210 [4] = experiment: Tested for inhibition of L1210 cell growth by the compound at a dose of >12.5 uM and after 96 hr; details: Mus musculus
L1210 [5] = experiment: Tested for inhibition of L1210 cell growth by the compound at a dose of 50 uM and after 48 hr; No inhibition at 50 uM; format: functional, cell-based; details: Mus musculus
L1210 [6] = experiment: Tested for inhibition of L1210 cell growth by the compound at a dose of 50 uM and after 96 hr; No inhibition at 50 uM; format: functional, cell-based; details: Mus musculus
[7] = Inhibitory concentration against growth of cultured […] cells at 144 hrs.; format: functional; details: Homo sapiens
[8] = Inhibitory concentration against growth of cultured […] cells at 72 hrs.; format: functional; details: Homo sapiens
HL-60 [9] = experiment: Inhibitory concentration against growth of cultured HL-60 cells at 144 hrs.; format: functional, cell-based; details: Homo sapiens, HL-60, 144 h
HL-60 [10] = experiment: Inhibitory concentration against growth of cultured HL-60 cells at 72 hrs.; format: functional, cell-based; details: Homo sapiens, HL-60, 72 h
L1210 [11] = experiment: Percent of clonogenic L1210 cells to relative to control was determined after the treatment with the compound of 10 uM was for 24 hr; format: functional, Mus musculus
L1210 [12] = experiment: Percent of clonogenic L1210 cells to relative to control was determined after the treatment with the compound of 10 uM was for 48 hr; format: functional, Mus musculus
L1210 [13] = experiment: Percent of clonogenic L1210 cells to relative to control was determined after the treatment with the compound of 10 uM was for 72 hr; format: functional, Mus musculus
L1210 [14] = experiment: Percent of clonogenic L1210 cells to relative to control was determined after the treatment with the compound of 10 uM was for 96h; format: functional, Mus musculus
Mus musculus [15] = experiment: % increase in life span in L1210 leukemic mice was calculated at 17.5 mg/kg by ip administration; format: functional; details: route intraperitoneal
Mus musculus [16] = experiment: % increase in life span in L1210 leukemic mice was calculated at 20 mg/kg by ip administration; format: functional; details: route intraperitoneal
Mus musculus [17] = experiment: % increase in life span in mice was calculated at 5 mg/kg by ip administration; format: functional; details: route intraperitoneal
Mus musculus [18] = experiment: % increase in life span in L1210 leukemic mice was calculated at 15 mg/kg by ip administration; format: functional; details: route intraperitoneal
Mus musculus [19] = species on record: Mus musculus; experiment: Ratio of survivors to the total mice in the test group; 0/13; format: functional
Mus musculus [20] = species on record: Mus musculus; experiment: Mean survival of mice with L1210 leukemia was evaluated on day 60 with no treatment; format: functional
Mus musculus [21] = experiment: Mean survival of L1210 leukemic mice was evaluated on day 60 at 15 mg/kg by ip administration (schedule: Q8H,1-6days); format: functional; details: route intraperitoneal
Mus musculus [22] = experiment: Mean survival of mice with 10e 5 L1210 cells was evaluated on day 60 at 15 mg/kg by ip administration (schedule: Q12H,1-6days); format: functional; details: route intraperitoneal
Mus musculus [23] = experiment: Mean survival of mice with L1210 leukemia on day 60 at 5 mg/kg by ip administration (schedule: Q8H,1-6days); format: functional; details: route intraperitoneal
Mus musculus [24] = experiment: Mean survival of mice with L1210 leukemia was evaluated on day 60 at 10 mg/kg by ip administration (schedule: Q8H,1-6days); format: functional; details: route intraperitoneal
Mus musculus [25] = experiment: Mean survival of mice with L1210 leukemia was evaluated on day 60 at 17.5 mg/kg by ip administration (schedule: Q8H,1-6days); format: functional; details: route intraperitoneal
Mus musculus [26] = experiment: Mean survival of mice with L1210 leukemia was evaluated on day 60 at 20 mg/kg by ip administration (schedule: Q8H,1-3days); format: functional; details: route intraperitoneal
Mus musculus [27] = experiment: Mean survival of mice with L1210 leukemia was evaluated on day 60 at 20 mg/kg by ip administration (schedule: Q8H,1-4days); format: functional; details: route intraperitoneal
Mus musculus [28] = experiment: % increase in life span in L1210 leukemic mice was calculated at 10 mg/kg by ip administration; format: functional; details: route intraperitoneal
Mus musculus [29] = experiment: % increase in life span in mice was calculated at 15 mg/kg by ip administration; format: functional; details: route intraperitoneal
[30] = Ratio of survivors to the total mice in the test group; 0/10; format: functional
[31] = Ratio of survivors to the total mice in the test group; 0/4; format: functional
[32] = Ratio of survivors to the total mice in the test group; 0/47; format: functional
[33] = Ratio of survivors to the total mice in the test group; 0/8; format: functional
[34] = Ratio of survivors to the total mice in the test group; 4/8; format: functional
[35] = Ratio of survivors to the total mice in the test group; 9/16; format: functional
[36] = Ratio of survivors to the total mice in the test group; 0/6; format: functional
L1210 [37] = experiment: Tested for L1210 cell growth as percent of control by the compound at a dose of 100 uM and after 48 hr; details: Mus musculus, L1210, 48 h
L1210 [38] = experiment: Tested for inhibition of L1210 cell growth by the compound at a dose of 30 uM and after 48 hr; format: functional; details: Mus musculus, L1210, 48 h
L1210 [39] = experiment: Tested for inhibition of L1210 cell growth by the compound at a dose of 25 uM and after 48 hr; No inhibition at 25 uM; format: functional, cell-based; details: Mus musculus
L1210 [40] = experiment: Tested for inhibition of L1210 cell growth by the compound at a dose of 25 uM and after 96 hr; No inhibition at 25 uM; format: functional, cell-based; details: Mus musculus
L1210 [41] = experiment: Tested for inhibition of L1210 cell growth by the compound at a dose of 30 uM and after 96 hr; format: functional; details: Mus musculus, L1210, 96 h
L1210 [42] = experiment: Tested for inhibition of L1210 cell growth by the compound at a dose of 50 uM and after 48 hr; format: functional; details: Mus musculus, L1210, 48 h

- IC50 (L1210 [2]): 750 nM
Structure (SMILES): CNCCCNCCCCNCCCNC
- control growth at 100 µM (L1210 [37]): 60%

- IC50 (L1210 [1]): 3000 nM
- IC50 (L1210 [2]): 200 nM
Structure (SMILES): CCCNCCCNCCCCNCCCNCCC

- IC50 (L1210 [2]): 10000 nM
Structure (SMILES): CCNCCCCNCCCNCC
- inhibition at 30 µM (L1210 [38]): 61%

- IC50 (L1210 [1]): 50000 nM
- IC50 (L1210 [2]): 500 nM
Structure (SMILES): CCNCCCNCCCNCCCCNCCCNCCCNCC

Continued, compound first:

Structure (SMILES): CCNCCCN(CC)CCCCN(CC)CCCNCC
- IC50 (L1210 [1]): 100000 nM
- IC50 (L1210 [2]): 3000 nM

Structure (SMILES): CCNCCCCCCCCCCCCNCC
- inhibition (L1210 [3]): No inhibition
- inhibition (L1210 [4]): No inhibition

Structure (SMILES): CCNCCCN1CCN(CCCNCC)CC1
- inhibition (L1210 [5]): No inhibition
- inhibition (L1210 [6]): No inhibition

Structure (SMILES): CCNCCCNCCCCNCCCNCC [BIS(ETHYL)SPERMINE]
- IC50 [7]: 500 nM
- IC50 [8]: > 40000 nM
- IC50 (HL-60 [9]): 300 nM
- IC50 (HL-60 [10]): 10000 nM
- Clones (L1210 [11]): 100%
- Clones (L1210 [12]): 75%
- Clones (L1210 [13]): 21%
- Clones (L1210 [14]): 2%
- IC50 (L1210 [1]): 10000 nM
- IC50 (L1210 [2]): 100 nM
- ILS at 17.5 mg/kg (Mus musculus [15]): 439%
- ILS (Mus musculus [16]): 57% and 103%
- ILS at 5 mg/kg (Mus musculus [17]): 25%
- ILS at 15 mg/kg (Mus musculus [18]): 55%
- S/T (Mus musculus [19]): 0
- Mean survival (Mus musculus [20]): 9.7 days and 8.9 days
- Mean survival (Mus musculus [21]): 46.6 days
- Mean survival (Mus musculus [22]): 14.9 days
- Mean survival (Mus musculus [23]): 12.3 days
- Mean survival (Mus musculus [24]): 35.3 days
- Mean survival (Mus musculus [25]): 52.3 days
- Mean survival (Mus musculus [26]): 14 days
- Mean survival (Mus musculus [27]): 18.1 days
- ILS at 10 mg/kg (Mus musculus [28]): 264%
- ILS at 15 mg/kg (Mus musculus [29]): 376%
- S/T [30]: 0
- S/T [31]: 0
- S/T [32]: 0
- S/T [33]: 0
- S/T [34]: 0.5
- S/T [35]: 0.562
- S/T [36]: 0

Structure (SMILES): CCN(CCCN)CCCCN(CC)CCCN
- inhibition (L1210 [39]): No inhibition
- inhibition (L1210 [40]): No inhibition

Structure (SMILES): CCCNCCCCNCCCNCCC
- inhibition at 30 µM (L1210 [38]): 88%
- inhibition at 30 µM (L1210 [41]): 83%

Structure (SMILES): CCN(CC)CCCNCCCCNCCCN(CC)CC
- inhibition at 50 µM (L1210 [42]): 80%
- IC50 (L1210 [2]): 5000 nM
